Holding throughout (assay): relative viability (nuclei count vs DMSO), 5 days (fraction); higher = more cells survive
Compound in test [1]: CN1CCN(CC1)C2=CC(=C(C=C2)NC3=NC(=C(S3)C(=O)C4=C(C=CC=C4Cl)Cl)N)OC [XMD14-99]
The essentials:
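Lung cancer cell lines in 1536-well plates were kept overnight at 37 °C, then pinned with five library-drug doses (not always all listed) spaced by √10 on vehicle-anchored plates. After 5 days without medium change, cells were fixed, permeabilised and Hoechst-stained in one step, imaged at 4×, and nuclei were counted with MetaXpress. Viability is treated-well nuclei divided by vehicle-well nuclei, taken as the median over plates. Plates passed only with control CV below 25% and at least one doubling.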

Compound in test [2]: CN1CCN(CC1)C2=CC(=C(C=C2)NC3=NC(=C(S3)C(=O)C4=C(C=CC=C4Cl)Cl)N)OC [XMD14-99] + Nc1nc2[nH]cc(CCc3ccc(C(=O)N[C@@H](CCC(=O)O)C(=O)O)cc3)c2c(=O)[nH]1 [Pemetrexed] (partner 0.2 µM)
Put shortly:
(§1)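 Five library-drug doses in √10 steps were combined with a fixed anchor-drug dose, or a single drug was given alone, by pin tool to lung cancer cell lines in 1536-well plates the day after seeding. Nuclei were stained and counted after 5 days. Relative viability is the nuclei count in treated wells over that in vehicle wells, taken as the median of duplicate plates.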

Compound in test [3]: N[C@@H]1CCCN(c2c(/C=C3\SC(=O)NC3=O)cccc2-c2ccccc2)C1 [AZD1208] + N=C(N)NC(=N)NCCc1ccccc1 [Phenformin] (partner 250 µM)
The essentials: as §1

Compound in test [4]: CN1CCN(CC1)C2=CC(=C(C=C2)NC3=NC(=C(S3)C(=O)C4=C(C=CC=C4Cl)Cl)N)OC [XMD14-99] + CC(C)C[C@H](NC(=O)[C@H](Cc1ccccc1)NC(=O)c1cnccn1)B(O)O [Bortezomib] (partner 0.002 µM)
Put shortly: as §1

SW 1573: the relative viability amounted to 0.964 in test [1] (0.08 µM); 0.939 in test [1] (0.8 µM); 1 in test [1] (2.53 µM); 0.834 in test [1] (8 µM); 0.726 in test [2] (first compound 0.08 µM); 0.847 in test [2] (first compound 0.8 µM). The relative viability in test [2] (first compound 2.53 µM) worked out at 0.788; in test [2] (first compound 8 µM), 0.776; in test [3] (first compound 0.08 µM), 0.295; in test [3] (first compound 0.253 µM), 0.272; in test [3] (first compound 0.8 µM), 0.27; in test [3] (first compound 2.53 µM) it was 0.244. The relative viability is 0.228 in test [3] (first compound 8 µM); 1.09 in test [4] (first compound 0.08 µM); 0.868 in test [4] (first compound 0.8 µM); 0.932 in test [4] (first compound 2.53 µM); 0.936 in test [4] (first compound 8 µM).

For the origin of these results see the supplement of paper PMC10307832.
